According to patent US20020058020A1, “Isolated amphiphilic peptides derived from the cytoplasmic tail of viral envelope proteins” (priority 1999, published 2002):
Ends that are not written are not given here. R1 = not defined here

Tests used:
[1] = Peptide-induced K+ release from unilamellar liposomes (Example 2); conditions: 22° C.; for % K+ - Release POPC: POPC liposomes; for % K+ - Release POPC:POPG1:1: POPC:POPG 1:1 liposomes; for % K+ - Release POPC:POPG,3:1: POPC:POPG 3:1 liposomes
Method: Peptide-induced K′ release from liposomes. Liposomes (see above) were made in 100 nM KCl, 10 mM Tris-HCl, pH 7.5. The external KCl was reduced to less than 0.1 mM by two passages through a PD10 column (Pharmacia Biotech AB, Uppsala, Sweden) equilibrated in NaCl buffer (100 mM NaCl, 10 mM Tris-HCl, pH 7.5). Potassium release from liposomes was detected by a K′-selective microelectrode (Micro-electrode Inc.) and recorded on VHS tape using a pulse-code modulator. Peptides were assayed at 10 μM and 30 μM.
Unilamellar liposomes formed from (i) POPC; (ii) POPC and POPG at a molar ratio of POPC: POPG of 3:1, or (iii) POPC and POPG at a molar ratio of POPC: POPG of 1:1 were prepared in 100 mM KC1 according to the procedure described in Example 1. Peptide-induced K+ release from the liposomes also was detected according to the procedure described in Example 1. All measurements were carried out at 22° C.

[2] = Peptide-induced K+ release from liposomes (Example 1); format: biochemical; conditions: for % K+-release: liposomes POPG/POPC 1:3, 10 mg/ml, loaded with 100 mM KCl, total release with 0.1 M Triton X-100, <2% not detectable
Method: Liposomes were prepared from 1-Palmitoyl-2-Oleoyl-sn-Glycero-3-(Phospho-rac-(1-glycerol)) (POPG) and 1-Palmitoyl-2-Oleoyl-sn-Glycero-3-Phosphocholine (POPC) (Avanti Polar Lipids Inc., Birmingham, Ala.). The lipid-chloroform solutions were mixed at a molar ratio of 1:3 (POPG:POPC), dried under N2 and vacuum, sonicated, and taken through freeze-thaw cycles repeated a minimum of 5 times.
Peptide-induced K′ release from liposomes. […] Enzymol., Vol. 235, pgs. 699-713 (1994).
^b Percentage of the intraliposomal K^+ release induced by […] peptides from liposomes (POPG/POPC 1:3, 10 mg/ml) loaded with 100 mM KC1 and dialyzed against 100 mM NaCl buffer. […] . Total K^+ release was obtained with 0.1 M Triton X-100.
A novel approach was developed to measure the membrane activity of peptide 598-616. Peptide-induced release of K^+ from KCl-loaded lipid vesicles was detected using a K^+-selective electrode. The addition of 10 μM wild type peptide 598-616 causes 29% K^+ content release. At a concentration of 30 μM, about 70% K^+ content is released from liposomes (data not shown). For comparison, 10 μM melittin, a lytic component of bee venom, causes 31% K^+ content release.

[3] = Circular dichroism analysis of α-helical content; format: physicochemical; conditions: for secondary structure by CD (in words): aqueous vs liposome environment
Method: A. Membrane-Dependent Formation Of An α-Helical Structure By Peptide 598-616 As measured By Circular Dichroism (CD). The plot represents an average of 9 CD spectra for 50 μM peptide 598-616 in an aqueous solution (20 mM NaPO4,pH 7, dashed line), and in presence of liposomal membrane vesicles (POPG/POPC [1:3] liposomes in 20 mM Na2 PO4, pH 7.4; lipid to peptide molar ratio 100:1; solid line). The measurements were obtained for wavelength 195-250 nm at 20 mdeg sensitivity.
The peptides for circular dichroism (CD) analysis were used at a final concentration of 50 μM. The stock solution of extruded liposomes at 50 mg/ml was used. The final peptide-to-lipid molar ratio was 1/100 in 20 mM Na2PO4 buffer. CD spectra were obtained using a Jasco J-600 CD spectrometer. Samples were scanned from 250 nm to 195 nm using cuvettes with a path length of 1 mm. Each result represents an average of 9 scans.
To analyze the secondary structure of the peptides corresponding to MoMuLV cytoplasmic tail segments, the peptides 598-616 and 617-632 were evaluated by CD spectroscopy. The CD spectrum produced by the peptide 598-616 absorption of polarized light in an aqueous environment is characteristic of a random coil conformation (FIG. 2A, dotted line). […] The estimated percent α-helicity for peptide 598-616 is nearly 60%. Similar α-helical properties have been observed for the lytic amphiphilic segments from HIV-1 env cytoplasmic tail and the active component of bee venom, melittin (Eisenberg, et al., Biopolymers, Vol. 29, pgs. 171-177 (1992)). Thus, the computer-predicted α-helical structure for the region 598-616 is confirmed for peptide 598-616 by CD analysis in the presence of membranes.

[4] = Electron paramagnetic resonance analysis of spin labeled peptides with liposomes; format: physicochemical; conditions: for aggregation state by EPR (in words): membrane-bound state or solution
Method: B. Spin-Labeled Peptide 598-616 Associates With Membranes As Determined By Electron Paramagnetic Resonance (EPR) Analysis. […]; lipid to peptide molar ratio 100:1; solid line). The arrow marks the position of a small component of free spin.
Spin labeled peptides (50 μM) diluted in buffer (50mM NaPO4, 100 mM NaCl, pH 7.4) were added to the extruded liposomes at a peptide-to-lipid molar ratio of greater than 1/100. X-band electron paramagnetic resonance (EPR) spectra were recorded at room temperature. The spin accessibility parameter (II) was determined for 20 mM nickel ethylenediaminediacetic acid, or NiEDDA, and O2 in equilibrium with air as previously described (Farahbakhsh, et al., Photochemistry and Photobiolocy, Vol. 56, pgs. 1019-1033 (1992)). The topology or context parameter φ was calculated as φ=ln [II(O2)/II(NiEDDA)] (Altenbach, et al., Proc. Nat. Acad. Sci., Vol. 91, pgs. 1667-1671 (1994)).
The structural features of the peptide 598-616 bound to membranes were investigated further by EPR analysis of corresponding peptides modified to contain single R1 nitroxide side chains at the positions indicated in FIG. 2C. For each labeled peptide in solution, the EPR spectrum consisted of three sharp resonance lines characteristic of a random coil for peptides containing R1 (Farahbakhsh, et al., Biochemistry, Vol. 34, pgs. 509-516 (1995)). A representative example is shown by the dotted line in FIG. 2B for the V606-R1 peptide. […] Judging from the line shapes, the contribution from the unbound peptide is very small, less than 1% (arrow FIG. 2B). All peptides 598-616 gave similar effects, although the individual line shapes varied (data not shown).
Spin-spin interactions between nitroxides result in spectral broadening over and above that due to motional effects (Mchaourab, et al., Biochemistry, Vol. 36, pgs. 307-316 (1997)).

NIH3T3 cells [5] = assay: Syncytia formation in env-transfected NIH3T3 cells; format: cell-based; conditions: relative fusion efficiency, normalized to 616* = 100
NIH3T3 cells [6] = assay: Transduction assay, β-gal titer on NIH3T3 cells; format: cell-based; conditions: WT = 100
[7] = test system: XC6 cell co-cultured with env-transfected 293T cells; assay: End point cell-to-cell fusion assay, 293T/XC6 co-culture; conditions: relative fusion efficiency, WT = 100
Method: Viral particles were obtained from 293T cells transfected transiently (n=3−5) with the expression plasmids for env, gag-pol, and β-gal, with wild type or mutant (616*, 601*, 598*, 595SR*, 578*, GLA ecto) env. Transduction efficiency of these virions (white bars=titers) was tested on NIH3T3 cells. The Env fusogenicity (filled bars =% fusion) was measured by expressing Env only in 293T cells. The indicator XC6 cells were added 24 hours post-transfection, were fixed 12 hours later and scored microscopically on ten 2 mm^2 grids for syncytia (cells with four or more nuclei).
Cell-To-Cell Fusion Assays For the end point fusion assay, 5×10^5 XC6 cells were added to the env transfected 293 T cells 20 hrs. post-transfection, and stained with methylene blue (0.01% in methanol) at about 36 hours post-transfection for syncytia (cells with 4 or more nuclei) scoring.
The end point fusion assay measures env-induced cell-to-cell fusion between env-transfected 293T cells and the ecotropic receptor expressing XC cells at 36 hrs post-transfection.

[8] = test system: env-transfected 293T cells; assay: Cell surface envelope protein expression by indirect immunofluorescence; conditions: relative, WT = 100
Method: NIH3T3 cells (1H10^5) , 293T or 293/12 (1H10^6) per 60 mm2 plates were transfected according to the Ca(PO4)2 transfection protocol of 5′-3′ Inc. (Boulder, Colo.) (day 1). For cell surface expression and co-culture experiments, 15 μg env expression plasmid was used.
Cell Surface Expression And The Analysis Of Viral Envelope Particle Incorporation Assays were done as described in Januszeski, et al., J. Virol., Vol. 71, pgs.

With “598-616 R601C: peptide 598-616 with R601C substitution (ILNCLVQFVKDRISVVQAL; UniProt P03385 631-649, looked up, variant R601C)” the “% K+ - Release POPC” value [1] was 32%, the “% K+ - Release POPC:POPG1:1” value [1] was 13% and the “% K+ - Release POPC:POPG,3:1” value [1] was 10%.

With “598-632 Q604C: peptide 598-632 with Q604C substitution” the “% K+ - Release POPC” value [1] was 6%, the “% K+ - Release POPC:POPG1:1” value [1] was 31% and the “% K+ - Release POPC:POPG,3:1” value [1] was 30%.

With `CC[C@H](C)[C@H](NC(=O)CN)C(=O)NCC(=O)N[C@@H](C)C(=O)N[C@H](C(=O)N[C@@H](CC(C)C)C(=O)N[C@@H](CCCCN)C(=O)N[C@H](C(=O)N[C@@H](CC(C)C)C(=O)N[C@H](C(=O)N[C@H](C(=O)NCC(=O)N[C@@H](CC(C)C)C(=O)N1CCC[C@H]1C(=O)N[C@@H](C)C(=O)N[C@@H](CC(C)C)C(=O)N[C@H](C(=O)N[C@@H](CO)C(=O)N[C@@H](Cc1c[nH]c2ccccc12)C(=O)N[C@H](C(=O)N[C@@H](CCCCN)C(=O)N[C@@H](CCCNC(=N)N)C(=O)N[C@@H](CCCCN)C(=O)N[C@@H](CCCNC(=N)N)C(=O)N[C@@H](CCC(N)=O)C(=O)N[C@@H](CCC(N)=O)C(N)=O)[C@@H](C)CC)[C@@H](C)CC)[C@@H](C)O)[C@@H](C)O)C(C)C)C(C)C` [melittin, reference compound] the “K+ content release” value ([2]; 10 μM peptide) was 31%, the “% K+-release” value [2] was 30.9 ± 2.1% and the “% K+ - Release POPC” value [1] was 31%. The “% K+ - Release POPC:POPG1:1” value [1] was 27% and the “% K+ - Release POPC:POPG,3:1” value [1] was 31%.

For Triton X-100 [reference compound], the “% K+-release” value [2] was 100%, the “% K+ - Release POPC” value [1] was 100% and the “% K+ - Release POPC:POPG1:1” value [1] was 100%. The “% K+ - Release POPC:POPG,3:1” value [1] was 100%.

With “598-616 Q604C: peptide 598-616 with Q604C substitution (ILNRLVCFVKDRISVVQAL; UniProt P03385 631-649, looked up, variant Q604C)” the “% K+ - Release POPC” value [1] was 29%, the “% K+ - Release POPC:POPG1:1” value [1] was 28% and the “% K+ - Release POPC:POPG,3:1” value [1] was 20%.

For “598-611: peptide of MoMuLV env residues 598-611 (ILNRLVQFVKDRIS; UniProt P03385 631-644, looked up, fragment) [Peptide 598-611]”, the “% K+ - Release POPC:POPG1:1” value [1] was 22% and the “% K+ - Release POPC:POPG,3:1” value [1] was 13%.

With “ILNRLVQFVKDRISVVQAL (Moloney murine sarcoma virus) [Peptide 598-616]” the “K+ content release” value ([2]; 10 μM peptide) was 29%, the “K+ content release” value ([2]; 30 μM peptide, data not shown) was “about 70%” and the “% K+-release” value [2] was 29.3 ± 3.6%. For the same molecule, the “estimated percent α-helicity” value ([3]; 50 μM peptide in presence of liposomes, lipid to peptide 100:1) was about 60%, the “secondary structure by CD (in words)” value [3] was “becomes α-helical” and the “aggregation state by EPR (in words)” value [4] was “monomeric association with the membrane”. The “% K+ - Release POPC” value [1] was 9%, the “% K+ - Release POPC:POPG1:1” value [1] was 24% and the “% K+ - Release POPC:POPG,3:1” value [1] was 13%.

In the case of Magainin [reference compound], the “% K+ - Release POPC” value [1] was 8%, the “% K+ - Release POPC:POPG1:1” value [1] was 51% and the “% K+ - Release POPC:POPG,3:1” value [1] was 43%.

In the case of “598-616 R609A: peptide 598-616 with Arg 609 Ala mutation (ILNRLVQFVKDAISVVQAL; UniProt P03385 631-649, looked up, variant R609A)”, the “loss of K+ release relative to wild type peptide 598-616” value [2] was 75%, the “% K+-release” value [2] was 9.9 ± 1.8% and the “% K+ - Release POPC” value [1] was 11%. The “% K+ - Release POPC:POPG1:1” value [1] was 0% and the “% K+ - Release POPC:POPG,3:1” value [1] was 0%.

In the case of “598-632: peptide representing the whole cytoplasmic tail region (598-632) [Peptide 598-632]”, the “secondary structure by CD (in words)” value [3] was “higher helical content in the presence of membrane vesicles than the peptide 598-616 alone” and the “aggregation state by EPR (in words)” value [4] was “monomeric association with the membrane”.

With “WT: wild type MoMuLV ecotropic envelope protein” the “Fusion NIH3T” value (NIH3T3 cells [5]) was 0, the “Titer (relative β-gal titer)” value (NIH3T3 cells [6]) was 100 and the “Fusion 293T/XC6” value [7] was 100. For the same molecule, the “Cell Surface Expression” value [8] was 100.

In the case of “598-616 F605C: peptide 598-616 with F605C substitution (ILNRLVQCVKDRISVVQAL; UniProt P03385 631-649, looked up, variant F605C)”, the “% K+ - Release POPC” value [1] was 8%, the “% K+ - Release POPC:POPG1:1” value [1] was 7% and the “% K+ - Release POPC:POPG,3:1” value [1] was 4%.

In the case of “602-616: peptide of MoMuLV env residues 602-616 (LVQFVKDRISVVQAL; UniProt P03385 635-649, looked up, fragment) [Peptide 602-616]”, the “% K+ - Release POPC” value [1] was 2%, the “% K+ - Release POPC:POPG1:1” value [1] was 5% and the “% K+ - Release POPC:POPG,3:1” value [1] was 4%.

For “598-616 D608C: peptide 598-616 with D608C substitution (ILNRLVQFVKCRISVVQAL; UniProt P03385 631-649, looked up, variant D608C)”, the “% K+ - Release POPC” value [1] was 5%, the “% K+ - Release POPC:POPG1:1” value [1] was 11% and the “% K+ - Release POPC:POPG,3:1” value [1] was 7%.

In the case of “V606-R1 peptide: nitroxide-labeled peptide 598-616 V606C(R1) (ILNRLVQFC(R1)KDRISVVQAL; reading uncertain; UniProt P03385 631-649, looked up, variant V606C)”, the “contribution from the unbound peptide” value ([4]; upon addition to liposomes, judged from EPR line shapes) was “less than 1%”.
